ChEMBL document CHEMBL5579801, “Novel orexin receptor agonists based on arene- or pyridine-fused 1,3-dihydro-2H-imidazole-2-imines” (Bioorg Med Chem Lett, 2024)
Values belong to the molecule of their own block, whether it stands above or below them.

Assays:
[1] = Cmax in mouse brain at 5 mg/kg,iv administration; assay type: ADME, organism-based
[2] = Cmax in mouse plasma at 5 mg/kg,iv administration; assay type: ADME, organism-based
[3] = AUClast in mouse plasma at 5 mg/kg,iv administration; assay type: ADME, organism-based
[4] = Tmax in mouse brain at 5 mg/kg,iv administration; assay type: ADME, organism-based
HEK293 = assay: Cytotoxicity against human HEK293 cells upto 100 uM incubated for 3 days; assay type: toxicity, cell-based; conditions: hek293, 72 h, time 3 day
[5] = Half life in mouse brain at 5 mg/kg,iv administration; assay type: ADME, organism-based
[6] = Half life in mouse plasma at 5 mg/kg,iv administration; assay type: ADME, organism-based
[7] = AUClast in mouse brain at 5 mg/kg,iv administration; assay type: ADME, organism-based; conditions: in vivo
[8] = Tmax in mouse plasma at 5 mg/kg,iv administration; assay type: ADME, organism-based
Orexin receptor type 2 = target: T1, Orexin receptor type 2 (Homo sapiens, UniProt O43614); assay: Agonist activity at human OX2R expressed in human HEK293 cells co-transfected with human Galphaq assessed as accumulation of inositol phosphate by scintillation counter analysis
T1 sequence (O43614 whole entry): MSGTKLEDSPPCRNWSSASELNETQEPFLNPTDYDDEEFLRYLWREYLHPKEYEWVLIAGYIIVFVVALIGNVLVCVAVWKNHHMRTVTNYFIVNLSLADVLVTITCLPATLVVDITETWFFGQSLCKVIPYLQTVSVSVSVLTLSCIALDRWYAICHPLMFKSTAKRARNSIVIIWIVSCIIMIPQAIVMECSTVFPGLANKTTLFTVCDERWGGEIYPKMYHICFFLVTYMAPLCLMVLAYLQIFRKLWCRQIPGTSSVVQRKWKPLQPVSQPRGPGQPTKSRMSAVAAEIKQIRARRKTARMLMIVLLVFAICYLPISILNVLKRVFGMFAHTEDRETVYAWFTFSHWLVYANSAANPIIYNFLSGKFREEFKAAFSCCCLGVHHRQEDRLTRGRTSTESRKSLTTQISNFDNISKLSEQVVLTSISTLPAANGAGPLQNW

[9] = Ratio of Cmax in mouse brain to plasma at 5 mg/kg,iv administration; assay type: ADME, organism-based
[10] = Ratio of AUC in mouse brain to plasma at 5 mg/kg,iv administration; assay type: ADME, organism-based; conditions: read-out: Ratio AUC

Compound: Cc1ccc(C[C@@H](C(=O)N2CC(C#N)C2)n2c(=N)n(C(C)c3ccc(C)cc3)c3cccnc32)cc1 (some centres not stated)
Cmax [1]: 218 ng/g | Cmax [2]: 651 ng/mL | AUC(0-t) [3]: 518 ng·h/mL | Tmax [4]: 10 min | Activity (HEK293): Non-Toxic | half-life [5]: 47 min | half-life [6]: 40 min | AUClast [7]: 12554 ng·min/g | Tmax [8]: 10 min

Compound: Cc1ccc(C[C@@H](CNC(=O)c2ccco2)n2c(=N)n(Cc3ccc(C)cc3)c3ccccc32)cc1
EC50 (Orexin receptor type 2): > 10 µM

Compound: Cc1ccc(C[C@@H](CNC(=O)CC(F)(F)F)n2c(=N)n(Cc3ccc(C)cc3)c3ccccc32)cc1
EC50 (Orexin receptor type 2): 6.46 µM

Compound: Cc1ccc(C[C@@H](CNC(=O)c2cccc(C)n2)n2c(=N)n(Cc3ccc(C)cc3)c3ccccc32)cc1
EC50 (Orexin receptor type 2): > 10 µM

Compound: Cc1ccc(C[C@@H](CSC(C)C)n2c(=N)n(Cc3ccc(C)cc3)c3ccccc32)cc1
EC50 (Orexin receptor type 2): 5.37 µM

Compound: Cc1ccc(C[C@@H](CNC(=O)c2ncccc2C)n2c(=N)n(Cc3ccc(C)cc3)c3ccccc32)cc1
EC50 (Orexin receptor type 2): > 10 µM

Compound: Cc1ccc(C[C@@H](CO)n2c(=N)n(Cc3ccc(C)cc3)c3ccc(C(F)(F)F)cc32)cc1
EC50 (Orexin receptor type 2): > 10 µM

Compound: Cc1ccc(C[C@@H](CO)n2c(=N)n(Cc3ccc(C)cc3)c3cc(Cl)ccc32)cc1
EC50 (Orexin receptor type 2): > 10 µM

Compound: Cc1ccc(C[C@@H](CO)n2c(=N)n(Cc3ccc(C)cc3)c3ccc(C)cc32)cc1
EC50 (Orexin receptor type 2): > 10 µM

Compound: Cc1ccc(C[C@@H](C[S+](C)[O-])n2c(=N)n(Cc3ccc(C)cc3)c3ccccc32)cc1 (some centres not stated)
EC50 (Orexin receptor type 2): 7.08 µM

Compound: CCSC[C@H](Cc1ccc(C)cc1)n1c(=N)n(Cc2ccc(C)cc2)c2ccccc21
EC50 (Orexin receptor type 2): 3.98 µM

Compound: Cc1ccc(C[C@@H](CS(C)(=O)=O)n2c(=N)n(Cc3ccc(C)cc3)c3ccccc32)cc1
EC50 (Orexin receptor type 2): 4.47 µM

Compound: Cc1ccc(C[C@@H](COCCN(C)C)n2c(=N)n(Cc3ccc(C)cc3)c3ccccc32)cc1
EC50 (Orexin receptor type 2): 3.98 µM

Compound: Cc1ccc(C[C@@H](CNS(=O)(=O)C(F)F)n2c(=N)n(Cc3ccc(C)cc3)c3ccccc32)cc1
EC50 (Orexin receptor type 2): 6.46 µM

Compound: COC[C@H](Cc1ccc(C)cc1)n1c(=N)n(C(c2ccc(C)cc2)C2CCC2)c2ccccc21 (mixture of isomers)
EC50 (Orexin receptor type 2): > 10 µM

Compound: Cc1ccc(C[C@@H](C(=O)N2CC3(CNC3)C2)n2c(=N)n(C(C)c3ccc(C)cc3)c3ccccc32)cc1 (mixture of isomers)
EC50 (Orexin receptor type 2): > 10 µM

Compound: CCC(=O)NCC(Cc1ccc(C)cc1)n1c(=N)n(Cc2ccc(C)cc2)c2ccccc21 (racemic)
EC50 (Orexin receptor type 2): 8.13 µM

Compound: Cc1ccc(CC(CNC(=O)C2CC2)n2c(=N)n(Cc3ccc(C)cc3)c3ccccc32)cc1 (racemic)
EC50 (Orexin receptor type 2): 5.25 µM

Compound: Cc1ccc(CC(CNC(=O)Cc2ccccc2)n2c(=N)n(Cc3ccc(C)cc3)c3ccccc32)cc1 (racemic)
EC50 (Orexin receptor type 2): > 10 µM

Compound: Cc1ccc(CC(CNC(=O)c2ccccc2)n2c(=N)n(Cc3ccc(C)cc3)c3ccccc32)cc1 (racemic)
EC50 (Orexin receptor type 2): > 10 µM

Compound: Cc1ccc(CC(CNC(=O)N(C)C)n2c(=N)n(Cc3ccc(C)cc3)c3ccccc32)cc1 (racemic)
EC50 (Orexin receptor type 2): 4.17 µM

Compound: Cc1ccc(CC(CNC(=O)Cc2cccnc2)n2c(=N)n(Cc3ccc(C)cc3)c3ccccc32)cc1 (racemic)
EC50 (Orexin receptor type 2): 4.68 µM

Compound: Cc1ccc(CC(CNS(=O)(=O)C(F)(F)F)n2c(=N)n(Cc3ccc(C)cc3)c3ccccc32)cc1 (racemic)
EC50 (Orexin receptor type 2): > 10 µM

Compound: Cc1ccc(CC(CNC(=O)CCCO)n2c(=N)n(Cc3ccc(C)cc3)c3ccccc32)cc1 (racemic)
EC50 (Orexin receptor type 2): > 10 µM

Compound: Cc1ccc(CC(CNC(=O)C(F)(F)F)n2c(=N)n(Cc3ccc(C)cc3)c3ccccc32)cc1 (racemic)
EC50 (Orexin receptor type 2): 6.61 µM

Compound: Cc1ccc(CC(CNC(=O)Cc2ncccn2)n2c(=N)n(Cc3ccc(C)cc3)c3ccccc32)cc1 (racemic)
EC50 (Orexin receptor type 2): > 10 µM

Compound: Cc1ccc(CC(CNC(=O)CN)n2c(=N)n(Cc3ccc(C)cc3)c3ccccc32)cc1 (racemic)
EC50 (Orexin receptor type 2): > 10 µM

Compound: Cc1ccc(CC(CNC(=O)Cc2ccncc2)n2c(=N)n(Cc3ccc(C)cc3)c3ccccc32)cc1 (racemic)
EC50 (Orexin receptor type 2): > 10 µM

Compound: COCOC[C@H](Cc1ccc(C)cc1)n1c(=N)n(C(C)c2ccc(C)cc2)c2cccnc21 (stereo in doubt; 62b)
EC50 (Orexin receptor type 2): 5.75 µM

Compound: COCCOC[C@H](Cc1ccc(C)cc1)n1c(=N)n(C(C)c2ccc(C)cc2)c2cccnc21 (stereo in doubt; 63b)
EC50 (Orexin receptor type 2): 4.68 µM

Compound: Cc1ccc(C[C@@H](CNC(=O)CO)n2c(=N)n(C(C)c3ccc(C)cc3)c3cccnc32)cc1 (stereo in doubt; 68b)
EC50 (Orexin receptor type 2): > 10 µM

Compound: Cc1ccc(C[C@@H](COCCC#N)n2c(=N)n(C(C)c3ccc(C)cc3)c3cccnc32)cc1 (stereo in doubt; 69b)
EC50 (Orexin receptor type 2): 5.62 µM

Further lines, with some results ahead:

EC50 (Orexin receptor type 2): 3.63 µM
Compound: COCCCOC[C@H](Cc1ccc(C)cc1)n1c(=N)n(Cc2ccc(C)cc2)c2ccccc21

EC50 (Orexin receptor type 2): 2.34 µM
Compound: CSC[C@H](Cc1ccc(C)cc1)n1c(=N)n(Cc2ccc(C)cc2)c2ccccc21

EC50 (Orexin receptor type 2): 1.41 µM
Compound: COC[C@H](Cc1ccc(C)cc1)n1c(=N)n(C(c2ccc(C)cc2)C(F)(F)F)c2ccccc21 (mixture of isomers)

EC50 (Orexin receptor type 2): 0.661 µM
Compound: Cc1ccc(C[C@@H](CNC(=O)CO)n2c(=N)n(C(C)c3ccc(C)cc3)c3ccccc32)cc1 (mixture of isomers)

Cmax [1]: 53.2 ng/g | Kp [9]: 0.24 | Cmax [2]: 225 ng/mL | AUC(0-t) [3]: 295 ng·h/mL | Tmax [4]: 10 min | Kp [10]: 0.48 | half-life [5]: 234 min | EC50 (Orexin receptor type 2): 0.661 µM | half-life [6]: 185 min | AUClast [7]: 8586 ng·min/g | Tmax [8]: 10 min
Compound: Cc1ccc(C[C@@H](C(=O)N2CC(C#N)C2)n2c(=N)n(C(C)c3ccc(C)cc3)c3ccccc32)cc1 (mixture of isomers)
Activity (HEK293): Non-Toxic

EC50 (Orexin receptor type 2): 1.95 µM
Compound: Cc1ccc(C[C@@H](CNC(=O)CO)n2c(=N)n(C(c3ccc(C)cc3)C(C)C)c3ccccc32)cc1 (mixture of isomers)

EC50 (Orexin receptor type 2): 2.45 µM
Compound: Cc1ccc(CC(CNC=O)n2c(=N)n(Cc3ccc(C)cc3)c3ccccc32)cc1 (racemic)

EC50 (Orexin receptor type 2): 3.31 µM
Compound: Cc1ccc(CC(CNC(=O)CN(C)C)n2c(=N)n(Cc3ccc(C)cc3)c3ccccc32)cc1 (racemic)

EC50 (Orexin receptor type 2): 1.86 µM
Compound: COC(=O)NCC(Cc1ccc(C)cc1)n1c(=N)n(Cc2ccc(C)cc2)c2ccccc21 (racemic)

EC50 (Orexin receptor type 2): 2.69 µM
Compound: CCOC(=O)NCC(Cc1ccc(C)cc1)n1c(=N)n(Cc2ccc(C)cc2)c2ccccc21 (racemic)

Cmax [1]: 143 ng/g | Kp [9]: 0.17 | Cmax [2]: 841 ng/mL | AUC(0-t) [3]: 986 ng·h/mL | Tmax [4]: 30 min | Kp [10]: 0.66 | half-life [5]: 134 min | EC50 (Orexin receptor type 2): 0.603 µM | half-life [6]: 74 min | AUClast [7]: 38969 ng·min/g | Tmax [8]: 10 min
Compound: COC[C@H](Cc1ccc(C)cc1)n1c(=N)n(C(c2ccc(C)cc2)C2CC2)c2ccccc21 (stereo in doubt; 61b)
Activity (HEK293): Non-Toxic

EC50 (Orexin receptor type 2): 1.95 µM
Compound: COC[C@H](Cc1ccc(C)cc1)n1c(=N)n(C(c2ccc(C)cc2)C2CC2)c2ccccc21 (stereo in doubt; 61c)

Cmax [1]: 2460 ng/g | Kp [9]: 3.32 | Cmax [2]: 741 ng/mL | AUC(0-t) [3]: 673 ng·h/mL | Tmax [4]: 10 min | Kp [10]: 2.49 | half-life [5]: 34 min | EC50 (Orexin receptor type 2): 0.933 µM | half-life [6]: 48 min | AUClast [7]: 100501 ng·min/g | Tmax [8]: 10 min
Compound: COCOC[C@H](Cc1ccc(C)cc1)n1c(=N)n(C(C)c2ccc(C)cc2)c2cccnc21 (stereo in doubt; 62c)
Activity (HEK293): Non-Toxic

EC50 (Orexin receptor type 2): 0.339 µM
Compound: COCCOC[C@H](Cc1ccc(C)cc1)n1c(=N)n(C(C)c2ccc(C)cc2)c2cccnc21 (stereo in doubt; 63c)

EC50 (Orexin receptor type 2): 1.51 µM
Compound: Cc1ccc(C[C@@H](CNC(=O)CO)n2c(=N)n(C(C)c3ccc(C)cc3)c3ccccc32)cc1 (stereo in doubt; 65b)

Cmax [1]: 15.3 ng/g | Kp [9]: 0.026 | Cmax [2]: 600 ng/mL | AUC(0-t) [3]: 691 ng·h/mL | Tmax [4]: 30 min | Kp [10]: 0.27 | half-life [5]: 729 min | EC50 (Orexin receptor type 2): 0.437 µM | half-life [6]: 230 min | AUClast [7]: 11291 ng·min/g | Tmax [8]: 10 min
Compound: Cc1ccc(C[C@@H](CNC(=O)CO)n2c(=N)n(C(C)c3ccc(C)cc3)c3ccccc32)cc1 (stereo in doubt; 65c)
Activity (HEK293): Non-Toxic

EC50 (Orexin receptor type 2): 1.32 µM
Compound: Cc1ccc(C[C@@H](CNC(=O)CO)n2c(=N)n(C(C)c3ccc(C)cc3)c3cccnc32)cc1 (stereo in doubt; 68c)

EC50 (Orexin receptor type 2): 0.372 µM
Compound: Cc1ccc(C[C@@H](COCCC#N)n2c(=N)n(C(C)c3ccc(C)cc3)c3cccnc32)cc1 (stereo in doubt; 69c)
